The text below walks through data of US20170315129A1, “CANCER CELL DETECTION METHOD USING LIVING BODY-DERIVED CELLS OF BIOLOGICAL ORIGIN” (Hirosaki University, priority 2014, published 2017).

One assay concerns pancreatic cancer cells. Conditions: in vitro culture cells such as pancreatic cancer cells or cancer-bearing mice; cited from earlier work.
For assay [1], the system named is ascites cells obtained during an operation of a patient with endometrial cancer. The assay is described as follows: Live-cell fluorescence imaging of ascites cells, endometrial cancer patient, reactive mesothelial cells (Example 3). It is filed as cell-based, human. Conditions: cell population in region of interest, apparent reactive mesothelial cells on Papanicolaou staining; 100 μM 2-NBDLG and 20 μM 2TRLG; FIG. 5A. How it is done: Immediately after the start of laparotomy for endometrial cancer, the peritoneal cavity was washed with physiological saline in the same manner as in Example 1 to obtain a peritoneal washing, which was then added to a 50 mL centrifuge tube having 5 mL of the Hanks solution in advance. The resulting ascitic fluid suspension was centrifuged at 1500 G for 2 minutes at room temperature, and then the supernatant was removed with a dropper. Some of the resulting pellet was set aside for cytodiagnosis tests at the hospital's pathology department, and the rest was dispersed into 15 mL of a KRB solution in a 15 mL centrifuge tube, then again centrifuged at 1500 G for 2 minutes at room temperature, and the supernatant was removed with a dropper. The pellet primarily includes red blood cells, and a large amount of red blood cells may obscure the target cells, interfering with microscopy. […]
An ×2 fLG solution prepared as in Example 1 (2-1) in an amount of 1 mL was added and mixed, and the cells was exposed to fLG for 5 minutes in a 37° C. water bath. […] Bright field image: high sensitivity, transmitted illumination intensity 25, aperture stop 20%, exposure time 1/500 s • Green fluorescence image: high sensitivity, excitation light intensity 100%, exposure time 1/4 s • Red fluorescence image: high sensitivity, excitation light intensity 10%, exposure time 1/10 s • (Experiment Results)

Assay [2] has as its system cells in peritoneal washing obtained during an operation of a patient with endometrial cancer (endometrial endometrioid adenocarcinoma). The assay is described as follows: Live-cell fluorescence imaging by perfusion, cells in peritoneal washing, endometrial cancer patient (Example 5). Conditions: cell clusters a and b (apparent mesothelial cells and apparent macrophage cells); perfusion 100 μM 2-NBDLG and 20 μM 2TRLG; FIG. 11A/11B, 12D. It is filed as cell-based, human. On the procedure:
A peritoneal washing obtained immediately after the start of laparotomy for endometrial cancer (endometrial endometrioid adenocarcinoma) in the same manner as in Example 1 was added to a 50 mL centrifuge tube having 5 mL of the Hanks solution in advance. Fibrin, fat, and impurities were removed from the ascitic fluid suspension in the same manner as in Example 4. Subsequently, a half of it was dispensed into a 50 mL centrifuge tube, and centrifuged at 1500 G for 2 minutes at room temperature. The supernatant was processed in the same manner as in Example 4 to obtain 1 mL of an ascites-cell suspension. • (2) Adhesion of Ascites Cells on Glass Plate by Centrifugation, and Method of Maintaining Cell Viability
The ascites-cell suspension in an amount of 1 mL taken at (1) was transferred to a plastic chamber dedicateded for CF-12D as in Example 4. The ascites cells were allowed to attach on a glass plate by centrifugation at 1400 rpm for 1 minute at room temperature. The plate was then treated as in Example 4, and stored in a moisture chamber until being mounted on the perfusion stage. • (3) Attachment of Glass Plate on Perfusion Stage and Perfusion […]
It was performed as in Example 4. Only a green fluorescence image was taken before administration of the fluorescently labeled L-glucose derivative. […]

Entries after “also recorded” stand apart in the source; their conditions may differ.

For the compound `O=C[C@@H](Nc1ccc([N+](=O)[O-])c2nonc12)[C@H](O)[C@@H](O)[C@@H](O)CO` [2-NBDLG, 2-[N-(7-nitrobenz-2-oxa-1,3-diazole-4-yl)amino]-2-deoxy-L-glucose], the “uptake into cancer cells” value with pancreatic cancer cells is “specific uptake”. The “fluorescence from 2-NBDLG (green wavelength region)” value in assay [1] is reported as “shows fluorescence”. For the same compound, in assay [2], the “fluorescence from 2-NBDLG (green wavelength region), after vs before application” value was “Neither the cell cluster a nor b shows fluorescence; also recorded: negative”.
